Source: patent publication US11440915B2, “Triazolo-azepine derivatives” (Hoffmann-La Roche Inc., priority 2017, dated 2022)

Molecular target: γ-secretase (Homo sapiens (Human), UniProt P49768)
Experiment: Cellular γ-secretase assay (inhibition of Aβ42 secretion, AlphaLisa)
Type: cell-based
Conditions: human neuroglioma H4 cells overexpressing human APP695 Swedish double mutation, 24 hr compound incubation
Description: Human neuroglioma H4 cells overexpressing human APP695 with the Swedish double mutation (K595N/M596L) were plated at 30,000 cells/well/100 μl in 96-well plates in IMDM media containing 10% FCS, 0.2 mg/l Hygromycin B and incubated at 37° C., 5% CO2.
3-4 hr post plating, compounds are a diluted in media and 50 μl is added as 1.5-fold concentrate to achieve the final concentration. Compound incubation is performed for 24 hr. Final doses typically range from 4 μM down to 0.001 μM in half-log steps resulting in a eight point dose response curve.
Appropriate controls using vehicle only and reference compound were applied to this assay. The final concentration of Me2SO was 0.4%.
After incubation at 37° C., 5% CO2, the supernatant was subjected to quantification of secreted Aβ42 by the means of an AlphaLisa assay kit (Human Amyloid beta 1-42 Kit: Cat #AL203C, Perkin Elmer). 20 μl of the cell culture supernatant was transferred to an assay plate. Then 10 μl of a mixture of the AlphaLisa coupled capture antibody and the biotinylated detection antibody was added and incubated for 3 hours at room temperature while softly shaking the assay plate. After a further addition of 20 μl of the Donor beads the assay plate was incubated for 30 min at room temperature and constant shaking without exposure to direct light. The assay plate was then read on a Paradigm AlphaLisa Reader using the build-in program with excitation at 680 nm and emission at 570 nm.
The measured signals were then used to calculate IC50 values for inhibition of Aβ42 secretion by nonlinear regression fit analysis using XLfit 5.3 software (IDBS).

| SMILES | EC50 |
| --- | --- |
| Cc1cn(C23CCC(Nc4nc5n(n4)CCCC[C@@H]5c4ccccc4F)(CC2)CC3)cn1 [Example 17, (9R)-9-(2-fluorophenyl)-N-[4-(4-methylimidazol-1-yl)-1-bicyclo[2.2.2]octanyl]-6,7,8,9-tetrahydro-5H-[1,2,4]triazolo[1,5-a]azepin-2-amine] | 56 nM |
| Cc1cn(C23CC(Nc4nc5n(n4)CCCC[C@H]5c4ccc(F)cc4)(C2)C3)cn1 [Example 4, (9S)-9-(4-fluorophenyl)-N-[3-(4-methylimidazol-1-yl)-1-bicyclo[1.1.1]pentanyl]-6,7,8,9-tetrahydro-5H-[1,2,4]triazolo[1,5-a]azepin-2-amine] | 31 nM |
| Cc1cn(C23CCC(Nc4nc5n(n4)CCCC[C@@H]5c4cc(F)cc(Cl)c4)(CC2)CC3)cn1 [Example 7, (9R)-9-(3-chloro-5-fluoro-phenyl)-N-[4-(4-methylimidazol-1-yl)-1-bicyclo[2.2.2]octanyl]-6,7,8,9-tetrahydro-5H-[1,2,4]triazolo[1,5-a]azepin-2-amine] | 15 nM |
| Cc1cn(C23CC(Nc4nc5n(n4)CCCC[C@@H]5c4cc(F)cc(Cl)c4)(C2)C3)cn1 [Example 9, (9R)-9-(3-chloro-5-fluoro-phenyl)-N-[3-(4-methylimidazol-1-yl)-1-bicyclo[1.1.1]pentanyl]-6,7,8,9-tetrahydro-5H-[1,2,4]triazolo[1,5-a]azepin-2-amine] | 8 nM |
| Cc1cn(C23CC(Nc4nc5n(n4)CCCC[C@H]5c4cc(F)cc(Cl)c4)(C2)C3)cn1 [Example 10, (9S)-9-(3-chloro-5-fluoro-phenyl)-N-[3-(4-methylimidazol-1-yl)-1-bicyclo[1.1.1]pentanyl]-6,7,8,9-tetrahydro-5H-[1,2,4]triazolo[1,5-a]azepin-2-amine] | 14 nM |
| Cc1cn(C23CCC(Nc4nc5n(n4)CCCC[C@H]5c4cc(F)cc(Cl)c4)(CC2)CC3)cn1 [Example 8, (9S)-9-(3-chloro-5-fluoro-phenyl)-N-[4-(4-methylimidazol-1-yl)-1-bicyclo[2.2.2]octanyl]-6,7,8,9-tetrahydro-5H-[1,2,4]triazolo[1,5-a]azepin-2-amine] | 14 nM |
| Cc1cn(C23CC(Nc4nc5n(n4)CCCC[C@H]5c4ccccc4F)(C2)C3)cn1 [Example 16, (9S)-9-(2-fluorophenyl)-N-[3-(4-methylimidazol-1-yl)-1-bicyclo[1.1.1]pentanyl]-6,7,8,9-tetrahydro-5H-[1,2,4]triazolo[1,5-a]azepin-2-amine] | 19 nM |
| Cc1cn(C23CCC(Nc4nc5n(n4)CCCC[C@H]5c4ccccc4F)(CC2)CC3)cn1 [Example 18, (9S)-9-(2-fluorophenyl)-N-[4-(4-methylimidazol-1-yl)-1-bicyclo[2.2.2]octanyl]-6,7,8,9-tetrahydro-5H-[1,2,4]triazolo[1,5-a]azepin-2-amine] | 62 nM |
| Cc1cn(C23CC(Nc4nc5n(n4)CCCC[C@@H]5c4ccc(F)cc4)(C2)C3)cn1 [Example 3, (9R)-9-(4-fluorophenyl)-N-[3-(4-methylimidazol-1-yl)-1-bicyclo[1.1.1]pentanyl]-6,7,8,9-tetrahydro-5H-[1,2,4]triazolo[1,5-a]azepin-2-amine] | 25 nM |
| Cc1cn(C23CCC(Nc4nc5n(n4)CCCC[C@@H]5c4ccc(F)c(F)c4F)(CC2)CC3)cn1 [Example 21, (9R)-N-[4-(4-methylimidazol-1-yl)-1-bicyclo[2.2.2]octanyl]-9-(2,3,4-trifluorophenyl)-6,7,8,9-tetrahydro-5H-[1,2,4]triazolo[1,5-a]azepin-2-amine] | 43 nM |
| Cc1cn(C23CC(Nc4nc5n(n4)CCCC[C@@H]5c4ccc(F)c(F)c4)(C2)C3)cn1 [Example 13, (9R)-9-(3,4-difluorophenyl)-N-[3-(4-methylimidazol-1-yl)-1-bicyclo[1.1.1]pentanyl]-6,7,8,9-tetrahydro-5H-[1,2,4]triazolo[1,5-a]azepin-2-amine] | 44 nM |
| Cc1cn(C23CCC(Nc4nc5n(n4)CCCC[C@H]5c4ccc(F)c(F)c4F)(CC2)CC3)cn1 [Example 22, (9S)-N-[4-(4-methylimidazol-1-yl)-1-bicyclo[2.2.2]octanyl]-9-(2,3,4-trifluorophenyl)-6,7,8,9-tetrahydro-5H-[1,2,4]triazolo[1,5-a]azepin-2-amine] | 27 nM |
| Cc1cn(C23CC(Nc4nc5n(n4)CCCC[C@@H]5c4ccc(Cl)cc4)(C2)C3)cn1 [Example 5, (9R)-9-(4-chlorophenyl)-N-[3-(4-methylimidazol-1-yl)-1-bicyclo[1.1.1]pentanyl]-6,7,8,9-tetrahydro-5H-[1,2,4]triazolo[1,5-a]azepin-2-amine] | 26 nM |
| Cc1cn(C23CCC(Nc4nc5n(n4)CCCC[C@H]5c4ccc(F)c(F)c4)(CC2)CC3)cn1 [Example 12, (9S)-9-(3,4-difluorophenyl)-N-[4-(4-methylimidazol-1-yl)-1-bicyclo[2.2.2]octanyl]-6,7,8,9-tetrahydro-5H-[1,2,4]triazolo[1,5-a]azepin-2-amine] | 49 nM |
| Cc1cn(C23CC(Nc4nc5n(n4)CCCC[C@H]5c4ccc(F)c(F)c4F)(C2)C3)cn1 [Example 20, (9S)-N-[3-(4-methylimidazol-1-yl)-1-bicyclo[1.1.1]pentanyl]-9-(2,3,4-trifluorophenyl)-6,7,8,9-tetrahydro-5H-[1,2,4]triazolo[1,5-a]azepin-2-amine] | 10 nM |
| Cc1cn(C23CC(Nc4nc5n(n4)CCCC[C@H]5c4cccc(Cl)c4)(C2)C3)cn1 [Example 2, (9S)-9-(3-chlorophenyl)-N-[3-(4-methylimidazol-1-yl)-1-bicyclo[1.1.1]pentanyl]-6,7,8,9-tetrahydro-5H-[1,2,4]triazolo[1,5-a]azepin-2-amine] | 16 nM |
| Cc1cn(C23CC(Nc4nc5n(n4)CCCC[C@@H]5c4ccccc4F)(C2)C3)cn1 [Example 15, (9R)-9-(2-fluorophenyl)-N-[3-(4-methylimidazol-1-yl)-1-bicyclo[1.1.1]pentanyl]-6,7,8,9-tetrahydro-5H-[1,2,4]triazolo[1,5-a]azepin-2-amine] | 38 nM |
| Cc1cn(C23CC(Nc4nc5n(n4)CCCC[C@H]5c4ccc(Cl)cc4)(C2)C3)cn1 [Example 6, (9S)-9-(4-chlorophenyl)-N-[3-(4-methylimidazol-1-yl)-1-bicyclo[1.1.1]pentanyl]-6,7,8,9-tetrahydro-5H-[1,2,4]triazolo[1,5-a]azepin-2-amine] | 23 nM |
| Cc1cn(C23CC(Nc4nc5n(n4)CCCC[C@@H]5c4ccc(F)c(F)c4F)(C2)C3)cn1 [Example 19, (9R)-N-[3-(4-methylimidazol-1-yl)-1-bicyclo[1.1.1]pentanyl]-9-(2,3,4-trifluorophenyl)-6,7,8,9-tetrahydro-5H-[1,2,4]triazolo[1,5-a]azepin-2-amine] | 14 nM |
| Cc1cn(C23CCC(Nc4nc5n(n4)CCCC[C@@H]5c4ccc(F)c(F)c4)(CC2)CC3)cn1 [Example 11, (9R)-9-(3,4-difluorophenyl)-N-[4-(4-methylimidazol-1-yl)-1-bicyclo[2.2.2]octanyl]-6,7,8,9-tetrahydro-5H-[1,2,4]triazolo[1,5-a]azepin-2-amine] | 39 nM |
| Cc1cn(C23CC(Nc4nc5n(n4)CCCC[C@H]5c4ccc(F)c(F)c4)(C2)C3)cn1 [Example 14, (9S)-9-(3,4-difluorophenyl)-N-[3-(4-methylimidazol-1-yl)-1-bicyclo[1.1.1]pentanyl]-6,7,8,9-tetrahydro-5H-[1,2,4]triazolo[1,5-a]azepin-2-amine] | 27 nM |
| Cc1cn(C23CC(Nc4nc5n(n4)CCCC[C@@H]5c4cccc(Cl)c4)(C2)C3)cn1 [Example 1, (9R)-9-(3-chlorophenyl)-N-[3-(4-methylimidazol-1-yl)-1-bicyclo[1.1.1]pentanyl]-6,7,8,9-tetrahydro-5H-[1,2,4]triazolo[1,5-a]azepin-2-amine] | 15 nM |
